The record followed here is patent publication US11952374B2, “Bicyclic compounds” (Aligos Therapeutics, Inc., priority 2020, dated 2024).

Read-outs that look alike come from different tables or passages of the source. Some results are limits rather than exact numbers.

The test system of series [1] is HBV. In words: HBV-DNA antiviral assay using HepG2.117 cells (intracellular HBV DNA by qPCR). As to conditions: Hepatitis B virus. The format is cell-based, HBV genotype D. As to the method:
(§1) The following assay procedure describes the HBV antiviral assay, using HepG2.117 cells, which carry a stably integrated genotype D HBV genome under the control of a Tet-off promoter, and intracellular HBV DNA quantification as endpoint. Cell viability is assessed in parallel by measuring the intracellular ATP content using CellTiter-Glo 2.0 (Promega).
On day 0, HepG2.117 cells (which are maintained in routine cell culture with doxycycline present in the medium at a final concentration of 1 μg/mL) are seeded in 96-well plates (white with clear bottom) at a density of 2.0×10^4 cells/well (0.1 mL/well) in medium without doxycycline to induce pgRNA transcription and subsequent formation of HBV particles. The cells are incubated at 37° C. and 5% CO2.
(§2) On day 1, medium is removed from each well, the test articles are diluted in culture medium without doxcycyline and 100 μL was added to cell culture wells (9 concentrations, 4-fold dilution). For each plate, 6 untreated (merely DMSO) wells are included. The final concentration of DMSO in the culture medium is 2%. Each plate is prepared in duplicate (one for HBV DNA extraction, one for CellTiter-Glo 2.0 measurement). The cells are incubated at 37° C. and 5% CO2 for 3 days.
(§3) On day 4, cell viability is assessed using CellTiter-Glo 2.0 and cell lysates are prepared for HBV DNA extraction and subsequent quantification by qPCR.
Medium is removed from each well and 100 μL of 0.33% NP-40 in H2O was added to each well. Plates are sealed, incubated at 4° C. for 5 mins, vortexed extensively and centrifuged briefly. Next, 35 μL of lysate is added to 65 μL QuickExtract DNA Extraction Solution (Epicentre) in a PCR plate for each well. PCR plate is incubated at 65° C. for 6 mins, 98° C. for 2 mins and finally cooled to 4° C. HBV DNA is then quantified by qPCR with HBV-specific primers and probes as specified in Table 2 using the Bio-Rad SSOAdvanced Universal Probes Supermix on a CFX96 machine (Bio-Rad). The PCR cycle program consisted of 95° C. for 3 mins, followed by 40 cycles at 95° C. for 10 sec and 60° C. for 30 sec.
A DNA standard is prepared by dilution of an IDT gBlock corresponding to the amplicon with concentrations ranging from 10^A2 to 10^A8 copies/input (i.e. per 4 μL) and used to generate a standard curve by plotting Cq values vs. HBV DNA standard concentration. The quantity of HBV DNA in each sample is determined by interpolating from the standard curve.
(§4) Cell viability is calculated as follows: % Cell viability=(luminescence value of test sample)/(average luminescence value of 2% DMSO control)×100%. HBV DNA inhibition was calculated as follows: 100−(HBV DNA copy number of test sample)/(average HBV DNA copy number of 2% DMSO control)×100%. No normalization to entecavir is required due to the excellent dynamic window of this assay. The CC50, EC50 and EC90 values were determined by dose-response curves fitted using non-linear regression.
(In qPCR the cycle at which signal appears reflects the starting amount.)

The nature of series [2]: Cell viability by CellTiter-Glo 2.0 (intracellular ATP) in HepG2.117 cells. The series is classed as cell-based. The following applies: human, CellTiter-Glo 2.0, 3 days incubation. As to the method:
as §1, §2, §3
Using the other plates, the cell viability is quantified by CellTiter-Glo 2.0 according to the manufacturer's manual. In brief, 100 μL of reagent solution is added to the culture plates and shaken for 2′. The plates are incubated at room temperature for 10 min and luminescence signal is subsequently measured on a VarioSkan Lux (ThermoFisher) plate reader.
as §4

The mark [3] stands for this setting: 72 h, HBV DNA inhibition, HepG2.117 cells, 3 days incubation, read-out: EC50.

A word on the EC50: it is the concentration needed to bring the measured effect to its halfway point. By CC50 is commonly meant the concentration that lowers cell viability or growth by half. Low readings indicate greater toxicity to the cells, high ones lower toxicity to the cells. Take `CCN1CCC(c2nc3c(c(=O)n2-c2ccc(C(=O)NC)cc2)CC(C)N(C(=O)c2ccc(Br)c(C(F)(F)F)c2)C3)C1` (stereo not shown) [Compound 18, 4-(7-(4-bromo-3-(trifluoromethyl)benzoyl)-2-(1-ethylpyrrolidin-3-yl)-6-methyl-4-oxo-5,6,7,8-tetrahydropyrido[3,4-d]pyrimidin-3(4H)-yl)-N-methylbenzamide]: the half-maximal effective concentration (EC50) in series [1] (setting [3]) is above 5 µM. For the same molecule, in series [2], the CC50 at 3 days was above 50 µM.
For `CCc1ccn(-c2nc3c(c(=O)n2-c2ccc(C(=O)NC)cc2)C[C@@H](C)N(C(=O)c2ccc(Br)c(C(F)(F)F)c2)C3)n1` [Compound 15], the EC50 in series [1] (setting [3]) is below 0.05 µM. Also, in series [2], the CC50 at 3 days is above 50 µM.
For the molecule `CNC(=O)c1ccc(-n2c(-c3cccc(C(C)C)n3)nc3c(c2=O)C[C@@H](C)N(C(=O)c2ccc(Br)c(C(F)(F)F)c2)C3)cc1` [Compound 8, (R)-4-(7-(4-bromo-3-(trifluoromethyl)benzoyl)-2-(6-isopropylpyridin-2-yl)-6-methyl-4-oxo-5,6,7,8-tetrahydropyrido[3,4-d]pyrimidin-3(4H)-yl)-N-methylbenzamide], in series [1] (setting [3]), the concentration giving a half-maximal response (EC50) was below 0.05 µM. This molecule gave a half-maximal cytotoxic concentration (CC50) at 3 days in series [2] of 30 µM.
`CNC(=O)c1ccc(-n2c(N(Cc3ccccc3)C3CCC3)nc3c(c2=O)C[C@@H](C)N(C(=O)c2ccc(Br)c(C(F)(F)F)c2)C3)cc1` [Compound 5, (R)-4-(2-(benzyl(cyclobutyl)amino)-7-(4-bromo-3-(trifluoromethyl)benzoyl)-6-methyl-4-oxo-5,6,7,8-tetrahydropyrido[3,4-d]pyrimidin-3(4H)-yl)-N-methylbenzamide] showed an EC50 in series [1] (HepG2.117, 72 h) below 0.05 µM. This molecule also displayed a CC50 at 3 days in series [2] above 0.5 µM.
As for `CNC(=O)c1ccc(-n2c(-n3ccc(C4CC4)n3)nc3c(c2=O)C[C@@H](C)N(C(=O)c2ccc(Br)c(C(F)(F)F)c2)C3)cc1` [Compound 10, (R)-4-(7-(4-bromo-3-(trifluoromethyl)benzoyl)-2-(3-cyclopropyl-1H-pyrazol-1-yl)-6-methyl-4-oxo-5,6,7,8-tetrahydropyrido[3,4-d]pyrimidin-3(4H)-yl)-N-methylbenzamide], the EC50 in series [1] (setting [3]) was below 0.05 µM. In addition, the CC50 at 3 days in series [2] is above 50 µM.
As for `CNC(=O)c1ccc(-n2c(-n3cc(CC(C)C)cn3)nc3c(c2=O)C[C@@H](C)N(C(=O)c2ccc(Br)c(C(F)(F)F)c2)C3)cc1` [Compound 16], the EC50 in series [1] (setting [3]) is 0.05 to 0.5 µM. The molecule also registered a half-maximal cytotoxic concentration (CC50) at 3 days in series [2] above 50 µM.
For `CNC(=O)c1ccc(-n2c(-n3ccc(C)n3)nc3c(c2=O)C[C@@H](C)N(C(=O)c2ccc(Br)c(C(F)(F)F)c2)C3)cc1` [Compound 19], in that order: below 0.05 µM and above 50 µM.
Regarding `CNC(=O)c1ccc(-n2c(N(Cc3ccccc3)C3CN(C)C3)nc3c(c2=O)C[C@@H](C)N(C(=O)c2ccc(Br)c(C(F)(F)F)c2)C3)cc1` [Compound 13, (R)-4-(2-(benzyl(1-methylazetidin-3-yl)amino)-7-(4-bromo-3-(trifluoromethyl)benzoyl)-6-methyl-4-oxo-5,6,7,8-tetrahydropyrido[3,4-d]pyrimidin-3(4H)-yl)-N-methylbenzamide], the 50% effective concentration (EC50) in series [1] (setting [3]) lay within 0.5 to 5 µM. The molecule also yielded a CC50 at 3 days in series [2] of 27 µM.
With `CNC(=O)c1ccc(-n2c(-n3ccc(C(C)C)n3)nc3c(c2=O)C[C@@H](C)N(C(=O)c2ccc(Br)c(C(F)(F)F)c2)C3)cc1` [Compound 2, (R)-4-(7-(4-bromo-3-(trifluoromethyl)benzoyl)-2-(3-isopropyl-1H-pyrazol-1-yl)-6-methyl-4-oxo-5,6,7,8-tetrahydropyrido[3,4-d]pyrimidin-3(4H)-yl)-N-methylbenzamide], the EC50 in series [1] (setting [3]) was below 0.05 µM. The molecule also came in with a CC50 at 3 days in series [2] above 50 µM.
Turning to `CNC(=O)c1ccc(-n2c(N(Cc3ccccc3)CC3CC3)nc3c(c2=O)C[C@@H](C)N(C(=O)c2ccc(Br)c(C(F)(F)F)c2)C3)cc1` [Compound 4, (R)-4-(2-(benzyl(cyclopropylmethyl)amino)-7-(4-bromo-3-(trifluoromethyl)benzoyl)-6-methyl-4-oxo-5,6,7,8-tetrahydropyrido[3,4-d]pyrimidin-3(4H)-yl)-N-methylbenzamide], the concentration giving a half-maximal response (EC50) in series [1] (setting [3]) is below 0.05 µM. In series [2], the CC50 at 3 days was above 50 µM.
`CNC(=O)c1ccc(-n2c(N(Cc3ccccc3)C3CC(F)(F)C3)nc3c(c2=O)C[C@@H](C)N(C(=O)c2ccc(Br)c(C(F)(F)F)c2)C3)cc1` [Compound 3, (R)-4-(2-(benzyl(3,3-difluorocyclobutyl)amino)-7-(4-bromo-3-(trifluoromethyl)benzoyl)-6-methyl-4-oxo-5,6,7,8-tetrahydropyrido[3,4-d]pyrimidin-3(4H)-yl)-N-methylbenzamide]: the EC50 in series [1] (setting [3]) is below 0.05 µM. In addition, the CC50 at 3 days in series [2] is above 50 µM.
For `CNC(=O)c1ccc(-n2c(N(CC3CC3)c3ccccc3)nc3c(c2=O)C[C@@H](C)N(C(=O)c2ccc(Br)c(C(F)(F)F)c2)C3)cc1` [Compound 12, (R)-4-(7-(4-bromo-3-(trifluoromethyl)benzoyl)-2-((cyclopropylmethyl)(phenyl)amino)-6-methyl-4-oxo-5,6,7,8-tetrahydropyrido[3,4-d]pyrimidin-3(4H)-yl)-N-methylbenzamide], in that order: below 0.05 µM and 10.8 µM.
In turn, `COc1ccc(-n2c(-c3ccccc3)nc3c(c2=O)CCN(C(=O)c2ccc(Br)c(C(F)(F)F)c2)C3)cc1` [Compound 7, 7-(4-bromo-3-(trifluoromethyl)benzoyl)-3-(4-methoxyphenyl)-2-phenyl-5,6,7,8-tetrahydropyrido[3,4-d]pyrimidin-4(3H)-one] gave an EC50 in series [1] (HepG2.117, 72 h) of 0.5 to 5 µM. This molecule yielded a CC50 at 3 days in series [2] above 0.5 µM.
As for `CNC(=O)c1ccc(-n2c([C@@H]3CCCN3C(C)C)nc3c(c2=O)CC(C)N(C(=O)c2ccc(Br)c(C(F)(F)F)c2)C3)cc1` (single isomer, unassigned) [Compound 11a], in series [1] (setting [3]), the half-maximal effective concentration (EC50) lay in the range of 0.5 to 5 µM. The 50% cytotoxic concentration (CC50) at 3 days in series [2] was above 50 µM.
The matching figures for `CNC(=O)c1ccc(-n2c(-n3cc(C4CC4)cn3)nc3c(c2=O)C[C@@H](C)N(C(=O)c2ccc(Br)c(C(F)(F)F)c2)C3)cc1` [Compound 9, (R)-4-(7-(4-bromo-3-(trifluoromethyl)benzoyl)-2-(4-cyclopropyl-1H-pyrazol-1-yl)-6-methyl-4-oxo-5,6,7,8-tetrahydropyrido[3,4-d]pyrimidin-3(4H)-yl)-N-methylbenzamide]: 0.05 to 0.5 µM and 27.8 µM.
Consider `CNC(=O)c1ccc(-n2c(NCc3ccccc3-c3ccccn3)nc3c(c2=O)C[C@@H](C)N(C(=O)c2ccc(Br)c(C(F)(F)F)c2)C3)c(Cl)c1` (single isomer, unassigned) [Compound 1a], for which the EC50 in series [1] (setting [3]) was below 0.05 µM. Moreover, in series [2], the CC50 at 3 days is above 50 µM.
With `CNC(=O)c1ccc(-n2c(-n3cccn3)nc3c(c2=O)C[C@@H](C)N(C(=O)c2ccc(Br)c(C(F)(F)F)c2)C3)cc1` [Compound 6, (R)-4-(7-(4-bromo-3-(trifluoromethyl)benzoyl)-6-methyl-4-oxo-2-(1H-pyrazol-1-yl)-5,6,7,8-tetrahydropyrido[3,4-d]pyrimidin-3(4H)-yl)-N-methylbenzamide], the half-maximal effective concentration (EC50) in series [1] (setting [3]) is below 0.05 µM. The molecule also came in with a CC50 at 3 days in series [2] above 50 µM.
